{
  "source": "patent US12122763B2",
  "about": "“Substituted piperidines for androgen receptor degradation” (UBIX THERAPEUTICS, INC., priority 2020, dated 2024)",
  "target": "T1, Androgen Receptor (AR) protein (Homo sapiens, UniProt P10275, T878A)",
  "T1 construct": "endogenous in cells; host or cells: LNCaP",
  "T1 sequence (P10275 whole entry T878A)": "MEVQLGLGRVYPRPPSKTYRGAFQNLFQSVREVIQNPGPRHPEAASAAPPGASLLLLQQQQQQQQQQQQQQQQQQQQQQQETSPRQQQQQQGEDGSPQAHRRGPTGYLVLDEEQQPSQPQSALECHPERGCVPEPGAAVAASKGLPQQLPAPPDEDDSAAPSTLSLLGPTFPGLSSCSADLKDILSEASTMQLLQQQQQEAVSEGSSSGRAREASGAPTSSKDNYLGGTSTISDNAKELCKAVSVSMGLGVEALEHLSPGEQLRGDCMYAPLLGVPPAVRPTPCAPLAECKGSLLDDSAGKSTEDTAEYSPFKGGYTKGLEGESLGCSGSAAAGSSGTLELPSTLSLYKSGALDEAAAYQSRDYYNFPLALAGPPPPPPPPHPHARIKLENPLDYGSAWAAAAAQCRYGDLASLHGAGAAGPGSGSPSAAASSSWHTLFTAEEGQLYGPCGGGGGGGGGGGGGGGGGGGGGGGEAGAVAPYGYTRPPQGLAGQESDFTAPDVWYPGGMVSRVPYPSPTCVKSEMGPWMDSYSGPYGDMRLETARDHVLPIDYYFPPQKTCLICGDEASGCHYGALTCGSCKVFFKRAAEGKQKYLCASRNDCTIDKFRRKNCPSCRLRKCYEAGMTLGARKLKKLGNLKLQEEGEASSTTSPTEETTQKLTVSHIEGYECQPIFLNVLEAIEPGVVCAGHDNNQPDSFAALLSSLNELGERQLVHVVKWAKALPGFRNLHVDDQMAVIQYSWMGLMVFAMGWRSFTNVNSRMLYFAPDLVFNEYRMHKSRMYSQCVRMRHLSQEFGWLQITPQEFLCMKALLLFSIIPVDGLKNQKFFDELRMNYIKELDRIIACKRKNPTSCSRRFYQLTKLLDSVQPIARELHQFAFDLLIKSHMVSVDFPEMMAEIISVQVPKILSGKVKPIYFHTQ",
  "T1 sequence (Q96SW2 whole entry partner)": "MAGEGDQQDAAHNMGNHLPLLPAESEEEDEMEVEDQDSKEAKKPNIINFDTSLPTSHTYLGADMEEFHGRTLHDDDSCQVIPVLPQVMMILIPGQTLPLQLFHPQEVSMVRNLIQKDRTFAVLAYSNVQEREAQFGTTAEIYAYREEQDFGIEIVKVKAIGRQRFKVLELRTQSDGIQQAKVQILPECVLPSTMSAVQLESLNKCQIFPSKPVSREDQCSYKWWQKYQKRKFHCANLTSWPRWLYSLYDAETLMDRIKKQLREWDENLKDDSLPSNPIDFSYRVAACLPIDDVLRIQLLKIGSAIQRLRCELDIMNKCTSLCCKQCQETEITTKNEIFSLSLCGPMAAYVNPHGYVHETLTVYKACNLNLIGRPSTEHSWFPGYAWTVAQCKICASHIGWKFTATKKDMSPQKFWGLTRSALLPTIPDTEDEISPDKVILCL",
  "test": "Androgen Receptor (AR) protein degradation assay in LNCaP cells, western blotting",
  "format": "cell-based",
  "conditions": "20 h; for inhibition at 0.01 µM: 0.01 μM compound; for inhibition at 0.1 µM: 0.1 μM compound; for inhibition at 1 µM: 1 μM compound",
  "description": "Experimental Example 1: Androgen Receptor (AR) Protein Degradation Assay\nAfter treating LNCaP cells with the synthesized Example compound, the amount of AR protein present in the cells was measured. The amount of AR protein was measured using western blotting detection method. The protocol of the experiment using LNCaP cells was as follows:\n[Culture] LNCaP cells were resuspended in RPMI1640 MEDIUM (Hyclone, SH30027.01), 10% FBS (Hyclone, SV30207.02), and 1% Penicillin-streptomycin (Welgene, LS 202-02) media to be 3×10^5/mL. Then, 1 mL each was seeded in a 12-well plate. After that, they were cultured for 3 days.\n[Compound treatment] 10 μl of 0.1, 1, 10, and 100 μM compound, which is the final compound treatment concentration and a 100× stock of 0.001, 0.01, 0.1, and 1 μM, was added in 1 ml media of each well, and 20 hours later, the cells were harvested.\n[Cell Lysis] Cell pellets were suspended using 1% SDS lysis buffer (50 mM Tris, 1 mM EDTA, 1% SDS, pH 8.0, 0.5 mM PMSF, 1× Protease/Phosphatase inhibitor Cocktail (Cell Signaling Technology, 5872s)), and sonication (70% AMP, 5 cycles (30 sec ON/59 sec OFF)) was performed. Cell lysate was obtained after centrifugation at 4° C., 15000 g, for 20 minutes.\n[Protein quantification] A BCA protein assay (SMART™ BCA Protein Assay Kit, iNtRON Biotechnology, 21071) was performed using a 96-well microplate. After adding 5 μl cell lysate and 5 μl 1% SDS lysis buffer to each well of the 96-well plate, 200 μl of BCA reagent (Reagent A:Reagent B=50:1) was additionally added. After incubation at 37° C. for 30 minutes, it was cooled at room temperature for 10 minutes. Then, absorbance was measured at a wavelength of 562 nm. The unknown protein concentration was measured using a BSA standard curve (0, 0.125, 0.25, 0.5, 1, 2 mg/ml). Western blotting samples were prepared by mixing cell lysate, 1% SDS lysis buffer, 4× Bolt™ LDS Sample buffer (Invitrogen, B0008), and 10× Bolt™ Sample Reducing Agent (Invitrogen, B0009) and boiling the mixture at 70° C. for 10 minutes.\n[Electrophoresis] After loading 8 μg of protein sample into each well of Bolt™ 4 to 12%, Bis-Tris, 1.0 mm Mini Protein Gel, 17-well (Invitrogen, NW04127BOX), Bolt™ MES SDS Running Buffer (Invitrogen, B0002) was used for electrophoresis at 200V (constant V) for 50 minutes.\n[Transfer] Using electrophoresis gel and Trans-Blot® Turbo™ Transfer Starter System (Bio-RAD, #17001918, Mini Nitrocellulose), transfer proceeded for 15 minutes under the condition of 1.3A (Constant A) and 25V (Limit V). To confirm protein transfer, 15 ml of Ponceau S solution (Sigma, P7170-1L) was used for staining for 1 minute, followed by washing to confirm the degree of transfer.\n[Blocking] Membranes for AR detection were blocked for 45 minutes with 5% skim milk/0.2% TBST (Skim milk: BD, 232100/20× TBS: Biosesang, TR2008-100-00/10% Tween 20 Solution: Bio-RAD, #161-0781). Membranes for GAPDH and β-actin detection were blocked for 45 minutes with Odyssey blocking buffer: 0.1% TBST=1:1 (Odyssey blocking buffer: Li-COR Biosciences, 927-50000).\n[Antibody and detection] The primary AR antibody (Androgen Receptor: CST, 5153s) was mixed with 5% skim milk/0.2% TBST at a ratio of 1:1000 and attached for 3 hours at room temperature. Primary β-actin antibody (GeneTex, 629630) was mixed with 5% BSA/0.2% TBST at a ratio of 1:2000 and attached for 3 hours at room temperature. Primary GAPDH antibody (GeneTex, 100118) was mixed with 5% BSA/0.2% TBST at a ratio of 1:2000 and attached for 3 hours at room temperature. After 3 hours, it was washed 3 times every 5 minutes using TBST (0.2% Tween 20). Anti-rabbit IgG, HRP-linked Antibody (CST, 7074s), secondary antibody for the AR antibody was mixed with 5% skim milk/0.2% TBST at a ratio of 1:5000 and attached for 45 minutes at room temperature. […]",
  "data": [
    {"smiles": "N#Cc1ccc(N2CCC(C(=O)Nc3ccc(N4CCC(CN5CCN(C[C@H]6CCN(c7ccc8c(c7)C(=O)N(C7CCC(=O)NC7=O)C8=O)C6)CC5)CC4)cn3)CC2)cc1C(F)(F)F", "note": "(stereo partly drawn) [Example 14, 1-(4-cyano-3-(trifluoromethyl)phenyl)-N-(5-(4-((4-(((3R)-1-(2-(2,6-dioxopiperidin-3-yl)-1,3-dioxoisoindolin-5-yl)pyrrolidin-3-yl)methyl)piperazin-1-yl)methyl)piperidin-1-yl)pyridin-2-yl)piperidine-4-carboxamide]", "values": [
      {"measurement": "inhibition at 0.01 µM", "result": 72, "unit": "%"},
      {"measurement": "inhibition at 0.1 µM", "result": 98, "unit": "%"},
      {"measurement": "inhibition at 1 µM", "result": 97, "unit": "%"}
    ]},
    {"smiles": "N#Cc1ccc(N2CCC(C(=O)Nc3ccc(N4CCC(CN5CCN(C[C@@H]6CCN(c7ccc8c(c7)C(=O)N(C7CCC(=O)NC7=O)C8=O)C6)CC5)CC4)cn3)CC2)cc1C(F)(F)F", "note": "(stereo partly drawn) [Example 15, 1-(4-cyano-3-(trifluoromethyl)phenyl)-N-(5-(4-((4-(((3S)-1-(2-(2,6-dioxopiperidin-3-yl)-1,3-dioxoisoindolin-5-yl)pyrrolidin-3-yl)methyl)piperazin-1-yl)methyl)piperidin-1-yl)pyridin-2-yl)piperidine-4-carboxamide]", "values": [
      {"measurement": "inhibition at 0.01 µM", "result": 60, "unit": "%"},
      {"measurement": "inhibition at 0.1 µM", "result": 97, "unit": "%"},
      {"measurement": "inhibition at 1 µM", "result": 98, "unit": "%"}
    ]},
    {"smiles": "N#Cc1ccc(N2CCC(C(=O)Nc3ccc(N4CCC(CN5CCN(C[C@H]6CCCN(c7ccc8c(c7)C(=O)N(C7CCC(=O)NC7=O)C8=O)C6)CC5)CC4)cn3)CC2)cc1C(F)(F)F", "note": "(stereo partly drawn) [Example 16, 1-(4-cyano-3-(trifluoromethyl)phenyl)-N-(5-(4-((4-(((3R)-1-(2-(2,6-dioxopiperidin-3-yl)-1,3-dioxoisoindolin-5-yl)piperidin-3-yl)methyl)piperazin-1-yl)methyl)piperidin-1-yl)pyridin-2-yl)piperidine-4-carboxamide]", "values": [
      {"measurement": "inhibition at 0.01 µM", "result": 50, "unit": "%"},
      {"measurement": "inhibition at 0.1 µM", "result": 94, "unit": "%"},
      {"measurement": "inhibition at 1 µM", "result": 97, "unit": "%"}
    ]},
    {"smiles": "N#Cc1ccc(N2CCC(C(=O)Nc3ccc(N4CCC(CN5CCN(C[C@@H]6CCCN(c7ccc8c(c7)C(=O)N(C7CCC(=O)NC7=O)C8=O)C6)CC5)CC4)cn3)CC2)cc1C(F)(F)F", "note": "(stereo partly drawn) [Example 17, 1-(4-cyano-3-(trifluoromethyl)phenyl)-N-(5-(4-((4-(((3S)-1-(2-(2,6-dioxopiperidin-3-yl)-1,3-dioxoisoindolin-5-yl)piperidin-3-yl)methyl)piperazin-1-yl)methyl)piperidin-1-yl)pyridin-2-yl)piperidine-4-carboxamide]", "values": [
      {"measurement": "inhibition at 0.01 µM", "result": 44, "unit": "%"},
      {"measurement": "inhibition at 0.1 µM", "result": 90, "unit": "%"},
      {"measurement": "inhibition at 1 µM", "result": 90, "unit": "%"}
    ]},
    {"smiles": "N#Cc1ccc(N2CCC(C(=O)Nc3ccc(N4CCC(CN5CCN(CC6CCN(c7cc8c(cc7F)C(=O)N(C7CCC(=O)NC7=O)C8=O)CC6)CC5)CC4)cn3)CC2)cc1C(F)(F)F", "note": "(stereo not drawn) [Example 18, 1-(4-cyano-3-(trifluoromethyl)phenyl)-N-(5-(4-((4-((1-(2-(2,6-dioxopiperidin-3-yl)-6-fluoro-1,3-dioxoisoindolin-5-yl)piperidin-4-yl)methyl)piperazin-1-yl)methyl)piperidin-1-yl)pyridin-2-yl)piperidine-4-carboxamide]", "values": [
      {"measurement": "inhibition at 0.01 µM", "result": 36, "unit": "%"},
      {"measurement": "inhibition at 0.1 µM", "result": 93, "unit": "%"},
      {"measurement": "inhibition at 1 µM", "result": 95, "unit": "%"}
    ]},
    {"smiles": "N#Cc1ccc(N2CCC(C(=O)Nc3ccc(N4CCC(CN5CCN(C[C@H]6CCN(c7cc8c(cc7F)C(=O)N(C7CCC(=O)NC7=O)C8=O)C6)CC5)CC4)cn3)CC2)cc1C(F)(F)F", "note": "(stereo partly drawn) [Example 19, 1-(4-cyano-3-(trifluoromethyl)phenyl)-N-(5-(4-((4-(((3R)-1-(2-(2,6-dioxopiperidin-3-yl)-6-fluoro-1,3-dioxoisoindolin-5-yl)pyrrolidin-3-yl)methyl)piperazin-1-yl)methyl)piperidin-1-yl)pyridin-2-yl)piperidine-4-carboxamide]", "values": [
      {"measurement": "inhibition at 0.01 µM", "result": 42, "unit": "%"},
      {"measurement": "inhibition at 0.1 µM", "result": 93, "unit": "%"},
      {"measurement": "inhibition at 1 µM", "result": 96, "unit": "%"}
    ]},
    {"smiles": "N#Cc1ccc(N2CCC(C(=O)Nc3ccc(N4CCC(CN5CCN(CC6CN(c7cc8c(cc7F)C(=O)N(C7CCC(=O)NC7=O)C8=O)C6)CC5)CC4)cn3)CC2)cc1C(F)(F)F", "note": "(stereo not drawn) [Example 20, 1-(4-cyano-3-(trifluoromethyl)phenyl)-N-(5-(4-((4-((1-(2-(2,6-dioxopiperidin-3-yl)-6-fluoro-1,3-dioxoisoindolin-5-yl)azetidin-3-yl)methyl)piperazin-1-yl)methyl)piperidin-1-yl)pyridin-2-yl)piperidine-4-carboxamide]", "values": [
      {"measurement": "inhibition at 0.01 µM", "result": 67, "unit": "%"},
      {"measurement": "inhibition at 0.1 µM", "result": 97, "unit": "%"},
      {"measurement": "inhibition at 1 µM", "result": 97, "unit": "%"}
    ]},
    {"smiles": "N#Cc1ccc(N2CCC(C(=O)Nc3ccc(N4CCC(CN5CCN(CC6CCN(c7ccc8c(c7)C(=O)N(C7CCC(=O)NC7=O)C8=O)CC6)CC5)CC4)cc3)CC2)cc1C(F)(F)F", "note": "(stereo not drawn) [Example 21, 1-(4-cyano-3-(trifluoromethyl)phenyl)-N-(4-(4-((4-((1-(2-(2,6-dioxopiperidin-3-yl)-1,3-dioxoisoindolin-5-yl)piperidin-4-yl)methyl)piperazin-1-yl)methyl)piperidin-1-yl)phenyl)piperidine-4-carboxamide]", "values": [
      {"measurement": "inhibition at 0.01 µM", "result": 47, "unit": "%"},
      {"measurement": "inhibition at 0.1 µM", "result": 50, "unit": "%"},
      {"measurement": "inhibition at 1 µM", "result": 63, "unit": "%"}
    ]},
    {"smiles": "N#Cc1ccc(N2CCC(C(=O)Nc3ccc(N4CCC(CN5CCN(C[C@H]6CCN(c7ccc8c(c7)C(=O)N(C7CCC(=O)NC7=O)C8=O)C6)CC5)CC4)cc3)CC2)cc1C(F)(F)F", "note": "(stereo partly drawn) [Example 22, 1-(4-cyano-3-(trifluoromethyl)phenyl)-N-(4-(4-((4-(((3R)-1-(2-(2,6-dioxopiperidin-3-yl)-1,3-dioxoisoindolin-5-yl)pyrrolidin-3-yl)methyl)piperazin-1-yl)methyl)piperidin-1-yl)phenyl)piperidine-4-carboxamide]", "values": [
      {"measurement": "inhibition at 0.01 µM", "result": 1, "unit": "%"},
      {"measurement": "inhibition at 0.1 µM", "result": 24, "unit": "%"},
      {"measurement": "inhibition at 1 µM", "result": 49, "unit": "%"}
    ]},
    {"smiles": "C[C@@H]1CN(CC2CCN(c3ccc4c(c3)C(=O)N(C3CCC(=O)NC3=O)C4=O)CC2)CCN1CC1CCN(c2ccc(NC(=O)C3CCN(c4ccc(C#N)c(C(F)(F)F)c4)CC3)nc2)CC1", "note": "(stereo partly drawn) [Example 23, 1-(4-cyano-3-(trifluoromethyl)phenyl)-N-(5-(4-(((2R)-4-((1-(2-(2,6-dioxopiperidin-3-yl)-1,3-dioxoisoindolin-5-yl)piperidin-4-yl)methyl)-2-methylpiperazin-1-yl)methyl)piperidin-1-yl)pyridin-2-yl)piperidine-4-carboxamide]", "values": [
      {"measurement": "inhibition at 0.01 µM", "result": 69, "unit": "%"},
      {"measurement": "inhibition at 0.1 µM", "result": 98, "unit": "%"},
      {"measurement": "inhibition at 1 µM", "result": 97, "unit": "%"}
    ]},
    {"smiles": "C[C@@H]1CN(CC2CN(c3ccc4c(c3)C(=O)N(C3CCC(=O)NC3=O)C4=O)C2)CCN1CC1CCN(c2ccc(NC(=O)C3CCN(c4ccc(C#N)c(C(F)(F)F)c4)CC3)nc2)CC1", "note": "(stereo partly drawn) [Example 24, 1-(4-cyano-3-(trifluoromethyl)phenyl)-N-(5-(4-(((2R)-4-((1-(2-(2,6-dioxopiperidin-3-yl)-1,3-dioxoisoindolin-5-yl)azetidin-3-yl)methyl)-2-methylpiperazin-1-yl)methyl)piperidin-1-yl)pyridin-2-yl)piperidine-4-carboxamide]", "values": [
      {"measurement": "inhibition at 0.01 µM", "result": 53, "unit": "%"},
      {"measurement": "inhibition at 0.1 µM", "result": 96, "unit": "%"},
      {"measurement": "inhibition at 1 µM", "result": 95, "unit": "%"}
    ]}
  ]
}
